According to paper PMC6858373 (Scientific Reports, 2019):
Where a name gives a salt, the structure may show the parent alone. Read-outs that look alike come from different tables or passages of the source.

How the values were obtained:
[1] = target: T1, FGF14:Nav1.6 C-tail complex (Homo sapiens, UniProt Q92915+Q9UQD0); assay: Split-luciferase complementation assay (LCA) in Clone V double stable HEK293 cells; assay type: cell-based; conditions: for Split Luciferase Assay Z-score Set 1 / Split Luciferase Assay Z-score Set 2: normalized to on-plate 0.3% DMSO controls
T1 construct: polymerase chain reaction (PCR) amplification of the FGF14 open reading frame (nt 1–855); C-terminal fragment of Nav1.6 (amino acids 1763–1976) fused with CD4ΔC-tail (amino acids 1–395); expressed in transfected cells

in vitro = conditions: human
Clone V cells = conditions: human
[2] = target: full-length P. pyralis luciferase (Photinus pyralis, UniProt P08659, K549A/L550V/N119G/N50D/S548I); assay type: cell-based; conditions: CC_NCI screening; normalized to on-plate 0.3% DMSO controls
[3] = CC_NCI screening, biological replicate Set 1
[4] = CC_NCI screening, biological replicate Set 1, normalized to on-plate 0.3% DMSO controls (n=16 per plate)
[5] = CC_NCI screening, biological replicate Set 2
[6] = CC_NCI screening, biological replicate Set 2, normalized to on-plate 0.3% DMSO controls (n=16 per plate)
[7] = average of Set 1 and Set 2, normalized to 0.3% DMSO controls

full-length P. pyralis luciferase, sequence (P08659 whole entry N50D/N119G/S548I/K549A/L550V, looked up): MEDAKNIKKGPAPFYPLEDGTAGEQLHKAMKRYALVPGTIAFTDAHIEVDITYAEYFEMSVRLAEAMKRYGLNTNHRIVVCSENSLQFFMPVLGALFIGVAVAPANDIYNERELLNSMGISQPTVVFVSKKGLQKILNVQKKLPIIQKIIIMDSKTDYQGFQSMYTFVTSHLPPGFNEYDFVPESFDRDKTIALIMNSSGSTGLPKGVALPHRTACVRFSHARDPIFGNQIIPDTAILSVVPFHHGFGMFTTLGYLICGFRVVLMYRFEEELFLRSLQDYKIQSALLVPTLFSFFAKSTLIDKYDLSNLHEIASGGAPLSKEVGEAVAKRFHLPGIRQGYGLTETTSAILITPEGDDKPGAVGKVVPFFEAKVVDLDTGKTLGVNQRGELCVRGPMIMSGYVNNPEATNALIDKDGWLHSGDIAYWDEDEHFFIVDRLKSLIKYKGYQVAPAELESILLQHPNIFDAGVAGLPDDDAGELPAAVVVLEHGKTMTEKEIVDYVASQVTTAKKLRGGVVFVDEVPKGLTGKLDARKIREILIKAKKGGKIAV
T1 sequence (Q92915 1-252 isoform Q92915-2): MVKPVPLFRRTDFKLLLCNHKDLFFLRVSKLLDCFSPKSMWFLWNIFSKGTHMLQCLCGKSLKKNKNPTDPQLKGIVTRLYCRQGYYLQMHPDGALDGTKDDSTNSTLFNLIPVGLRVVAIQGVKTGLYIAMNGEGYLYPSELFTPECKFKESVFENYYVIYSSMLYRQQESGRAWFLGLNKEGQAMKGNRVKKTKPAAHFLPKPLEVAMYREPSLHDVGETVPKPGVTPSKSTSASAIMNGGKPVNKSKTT
T1 sequence (Q9UQD0 1763-1976 limits assumed): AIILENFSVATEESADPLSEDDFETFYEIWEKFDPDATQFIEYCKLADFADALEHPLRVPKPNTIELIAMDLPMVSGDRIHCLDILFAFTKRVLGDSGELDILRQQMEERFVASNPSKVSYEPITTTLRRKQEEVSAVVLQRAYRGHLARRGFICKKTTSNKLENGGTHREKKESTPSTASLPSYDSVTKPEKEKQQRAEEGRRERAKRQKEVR

Row | Structure (SMILES) | Split Luciferase Assay Z-score Set 1 [1, 3] | Split Luciferase Assay % Lum Set 1 [1, 4] [%] | Split Luciferase Assay Z-score Set 2 [1, 5] | Split Luciferase Assay %Lum Set 2 [1, 6] [%] | Split Luciferase Assay %Lum Avg [1, 7] [%] | viability (in vitro) [%] | Toxicity Assay Z-score (CTB cell viability) (Clone V cells) | Luciferase Assay % Lum (full-length luciferase counter-screen) [2] [%] | Luciferase Assay Z-score (full-length luciferase counter-screen) [2] | viability at 16 h, 30 µM (in vitro; Clone V cells) [%] | Toxicity Assay Z-score (CTB cell viability) (Clone V cells; 16 h, 30 µM) | viability at 16 h, 30 µM (in vitro) [%] | Z-score (LCA primary screening) ([1]; 30 µM, 384-well, average of primary screening (n = 2), vs on-plate 0.3% DMSO) | IMin (% Luminescence) ([1]; antagonists, Clone V cells, 384-well, normalized to DMSO) | IC50 ([1]; estimated, 8-point dose response 0.25-30 µM, n = 4 per concentration, library compounds, read-out: IC50) [µM] | Split Luciferase Assay % Lum Set 1 [1] [%] | Split Luciferase Assay %Lum Avg [1] [%] | Split Luciferase Assay %Lum Set 2 [1] [%]
1 | COc1cc(O)c2c(c1)[C@H]1O[C@@H]1C[C@H](O)[C@H](O)C(=O)/C=C\C[C@H](C)OC2=O [HYPOTHEMYCIN] | -3.75 | 53.59 | -4.16 | 48.89 | 51.24 | 103 | 0.42 | 72.32 | -3.54 | – | – | – | – | – | – | – | – | –
2 | CC(=O)[C@]1(O)Cc2c(O)c3c(c(O)c2[C@@H](O[C@H]2C[C@H](N)[C@H](O)[C@H](C)O2)C1)C(=O)c1ccccc1C3=O [Idarubicin hydrochloride] | 0.12 | 101.43 | -0.69 | 91.55 | 96.49 | – | – | 114.41 | 1.85 | 113 | 1.79 | – | – | – | – | – | – | –
3 | O=P1(NCCCl)OCCCN1CCCl (stereo not drawn) [Ifosfamide] | 1.26 | 115.56 | -0.01 | 99.87 | 107.71 | 106 | 0.82 | 96.59 | -0.44 | – | – | – | – | – | – | – | – | –
4 | CC(C)Cn1cnc2c(N)nc3ccccc3c21 [Imiquimod] | 1.35 | 116.65 | 1.01 | 112.35 | 114.50 | – | – | 104.72 | 0.60 | – | 1.03 | 107 | – | – | – | – | – | –
5 | Cc1[nH]c2ccccc2c1CCNCc1ccc(/C=C/C(=O)NO)cc1 [LBH-589] | -1.99 | 75.34 | -0.18 | 97.79 | 86.56 | – | – | 101.54 | 0.20 | 106 | 0.78 | – | – | – | – | – | – | –
6 | O=c1cc(N2CCOCC2)oc2c(-c3ccccc3)cccc12 [LY 294002] | -0.94 | 88.38 | -1.87 | 76.98 | 82.68 | – | – | 80.46 | -2.50 | – | -0.14 | 99 | – | – | – | – | – | –
7 | CN(C)C[C@@H]1CCn2cc(c3ccccc32)C2=C(C(=O)NC2=O)c2cn(c3ccccc23)CCO1 [LY 333531, reference compound] | -4.72 | 41.64 | -5.94 | 27.05 | 34.34 | – | – | 78.46 | -2.76 | – | 0.14 | 101 | −5.33 | 34.34 | 12.2 | – | – | –
8 | O=NN(CCCl)C(=O)NC1CCCCC1 [Lomustine] | 0.12 | – | 2.53 | – | – | 103 | 0.41 | 109.33 | 1.20 | – | – | – | – | – | – | 101.43 | 116.25 | 131.08
